The data set relates to CCRIS mutagenicity, Ames/micronucleus/aberration tests. The data set can be described thus: CCRIS mutagenicity studies.
Where [1] appears, read: Test System: AMES SALMONELLA TYPHIMURIUM, Strain/Indicator: TA98, Metabolic Activation: NONE, Method: STANDARD PLATE.
[2] abbreviates: Test System: AMES SALMONELLA TYPHIMURIUM, Strain/Indicator: TA100, Metabolic Activation: NONE, Method: STANDARD PLATE.
The mark [3] stands for this setting: Test System: AMES SALMONELLA TYPHIMURIUM, Strain/Indicator: TA98, Metabolic Activation: RAT, LIVER, S-9, AROCLOR 1254, Method: STANDARD PLATE.
The mark [4] stands for this setting: Test System: AMES SALMONELLA TYPHIMURIUM, Strain/Indicator: TA100, Metabolic Activation: RAT, LIVER, S-9, AROCLOR 1254, Method: STANDARD PLATE.
[5] abbreviates: Test System: AMES SALMONELLA TYPHIMURIUM, Strain/Indicator: TA1537, Metabolic Activation: NONE, Method: STANDARD PLATE.
The mark [6] stands for this setting: Test System: AMES SALMONELLA TYPHIMURIUM, Strain/Indicator: TA1537, Metabolic Activation: RAT, LIVER, S-9, AROCLOR 1254, Method: STANDARD PLATE.
[7] abbreviates: Test System: AMES SALMONELLA TYPHIMURIUM, Strain/Indicator: TA98, Metabolic Activation: NONE, Method: PREINCUBATION
The mark [8] stands for this setting: Test System: AMES SALMONELLA TYPHIMURIUM, Strain/Indicator: TA100, Metabolic Activation: NONE, Method: PREINCUBATION

The source made the active and inactive calls. The rule behind the calls is not given here.

Take `COc1ccc(NC(=O)c2csc([N+](=O)[O-])c2)cc1`: the mutagenic call under setting [1] is “active; positive” and the mutagenic call under setting [2] was “active; positive”.
Consider `O=C1C[C@H](O)[C@@H]2c3c(ccc(O)c31)-c1ccc(O)c3c1[C@@]2(O)CCC3=O`, for which the mutagenic call runs as follows: (Test System: AMES SALMONELLA TYPHIMURIUM, Strain/Indicator: TA98, Metabolic Activation: RAT LIVER S-9, AROCLOR 1254, Method: STANDARD PLATE) “active; positive”; under setting [3], “active; positive”; (Test System: AMES SALMONELLA TYPHIMURIUM, Strain/Indicator: TA100, Metabolic Activation: RAT LIVER S-9, AROCLOR 1254, Method: STANDARD PLATE) “inactive; negative”; under setting [4], “active; positive”; under setting [5], “active; positive”; under setting [6], “active; positive”. Moreover, the mutagenic call is “inactive; negative. nitrosation increased mutagenicity” (Test System: Ames Salmonella typhimurium, Strain/Indicator: TA97, Metabolic Activation: None, Method: Standard plate); “inactive; negative. nitrosation increased mutagenicity” (Test System: Ames Salmonella typhimurium, Strain/Indicator: TA97, Metabolic Activation: Rat, Liver, S-9, Aroclor 1254 (10%), Method: Standard plate); “active; positive. nitrosation yielded mutagenic product” (Test System: Ames Salmonella typhimurium, Strain/Indicator: TA102, Metabolic Activation: None, Method: Standard plate); “active; positive. nitrosation yielded mutagenic product” (Test System: Ames Salmonella typhimurium, Strain/Indicator: TA102, Metabolic Activation: Rat, Liver, S-9, Aroclor 1254 (10%), Method: Standard plate); “inactive; negative. nitrosation increased mutagenicity” (Test System: Ames Salmonella typhimurium, Strain/Indicator: TA104, Metabolic Activation: None, Method: Standard plate); “inactive; negative. nitrosation increased mutagenicity” (Test System: Ames Salmonella typhimurium, Strain/Indicator: TA104, Metabolic Activation: Rat, Liver, S-9, Aroclor 1254 (10%), Method: Standard plate). The mutagenic call (Test System: Chinese hamster fibroblasts, Strain/Indicator: V79 (Hprt)/6-thioguanine, Metabolic Activation: None, Method: Standard plate) is “inactive; negative (positive in presence of nitrosating medium_” and the mutagenic call (Test System: Rat hepatoma cells, Strain/Indicator: H4IIE (Hprt/6-thioguanine), Metabolic Activation: None, Method: Standard plate) is “inactive; negative (positive in presence of nitrosating medium)”.
In the case of `C/C=C\C(=O)O[C@@H]1C[C@H]2O[C@@H]3C=C(C)C(=O)C[C@]3(C)[C@]1(C)[C@]21CO1`, the mutagenic call was “inactive; negative” under setting [7]; “inactive; negative” (Test System: AMES SALMONELLA TYPHIMURIUM, Strain/Indicator: TA98, Metabolic Activation: RAT, LIVER, S-9, AROCLOR 1254, Method: PREINCUBATION); “inactive; negative” under setting [8]; “inactive; negative” (Test System: AMES SALMONELLA TYPHIMURIUM, Strain/Indicator: TA100, Metabolic Activation: RAT, LIVER, S-9, AROCLOR 1254, Method: PREINCUBATION).
As for `C/C=C\c1ccc(OC)cc1OC`, the mutagenic call runs as follows: (Test System: AMES SALMONELLA TYPHIMURIUM, Strain/Indicator: TA97, Metabolic Activation: NONE, Method: STANDARD PLATE) “inactive; negative”; (Test System: AMES SALMONELLA TYPHIMURIUM, Strain/Indicator: TA97, Metabolic Activation: RAT, LIVER, S-9, AROCLOR 1254, Method: STANDARD PLATE) “inactive; negative”; under setting [1], “inactive; negative”; under setting [3], “inactive; negative”; under setting [2], “inactive; negative”; under setting [4], “inactive; negative”. Besides, the mutagenic call was “inactive; negative” (Test System: AMES SALMONELLA TYPHIMURIUM, Strain/Indicator: TA1535, Metabolic Activation: NONE, Method: STANDARD PLATE); “inactive; negative” (Test System: AMES SALMONELLA TYPHIMURIUM, Strain/Indicator: TA1535, Metabolic Activation: RAT, LIVER, S-9, AROCLOR 1254, Method: STANDARD PLATE); “inactive; negative” under setting [5]; “inactive; negative” under setting [6]; “inactive; negative” (Test System: AMES SALMONELLA TYPHIMURIUM, Strain/Indicator: TA1538, Metabolic Activation: NONE, Method: STANDARD PLATE); “inactive; negative” (Test System: AMES SALMONELLA TYPHIMURIUM, Strain/Indicator: TA1538, Metabolic Activation: RAT, LIVER, S-9, AROCLOR 1254, Method: STANDARD PLATE).
In the case of `Cc1cc(=O)[nH]c(=S)[nH]1`, the mutagenic call is, setting by setting: (Test System: AMES SALMONELLA TYPHIMURIUM, Strain/Indicator: TA97, Metabolic Activation: HAMSTER, LIVER, S-9, AROCLOR 1254 (10 OR 30%), Method: PREINCUBATION) “inactive; negative”; (Test System: AMES SALMONELLA TYPHIMURIUM, Strain/Indicator: TA97, Metabolic Activation: NONE, Method: PREINCUBATION) “inactive; negative”; (Test System: AMES SALMONELLA TYPHIMURIUM, Strain/Indicator: TA97, Metabolic Activation: RAT, LIVER, S-9, AROCLOR 1254 (10 OR 30%), Method: PREINCUBATION) “inactive; negative”; (Test System: AMES SALMONELLA TYPHIMURIUM, Strain/Indicator: TA98, Metabolic Activation: HAMSTER, LIVER, S-9, AROCLOR 1254 (10 OR 30%), Method: PREINCUBATION) “inactive; negative”; under setting [7], “inactive; negative”; (Test System: AMES SALMONELLA TYPHIMURIUM, Strain/Indicator: TA98, Metabolic Activation: RAT, LIVER, S-9, AROCLOR 1254 (10 OR 30%), Method: PREINCUBATION) “inactive; negative”. Further, the mutagenic call by setting is: (Test System: AMES SALMONELLA TYPHIMURIUM, Strain/Indicator: TA100, Metabolic Activation: HAMSTER, LIVER, S-9, AROCLOR 1254 (10%), Method: PREINCUBATION) “inactive; negative”; (Test System: AMES SALMONELLA TYPHIMURIUM, Strain/Indicator: TA100, Metabolic Activation: HAMSTER, LIVER, S-9, AROCLOR 1254 (30%), Method: PREINCUBATION) “inactive; negative”; under setting [8], “inactive; negative”; (Test System: AMES SALMONELLA TYPHIMURIUM, Strain/Indicator: TA100, Metabolic Activation: RAT, LIVER, S-9, AROCLOR 1254 (10%), Method: PREINCUBATION) “inactive; negative”; (Test System: AMES SALMONELLA TYPHIMURIUM, Strain/Indicator: TA100, Metabolic Activation: RAT, LIVER, S-9, AROCLOR 1254 (30%), Method: PREINCUBATION) “inactive; negative”; (Test System: AMES SALMONELLA TYPHIMURIUM, Strain/Indicator: TA1535, Metabolic Activation: HAMSTER, LIVER, S-9, AROCLOR 1254 (10 OR 30%), Method: PREINCUBATION) “inactive; negative”. In addition, the mutagenic call by setting is: (Test System: AMES SALMONELLA TYPHIMURIUM, Strain/Indicator: TA1535, Metabolic Activation: NONE, Method: PREINCUBATION) “inactive; negative”; (Test System: AMES SALMONELLA TYPHIMURIUM, Strain/Indicator: TA1535, Metabolic Activation: RAT, LIVER, S-9, AROCLOR 1254 (10 OR 30%), Method: PREINCUBATION) “inactive; negative”.
`CO[C@H](C(=O)[C@@H](O)[C@@H](C)O)[C@@H]1Cc2cc3cc(O[C@H]4C[C@@H](O[C@H]5C[C@@H](O)[C@H](O)[C@@H](C)O5)[C@H](O)[C@@H](C)O4)c(C)c(O)c3c(O)c2C(=O)[C@H]1O[C@H]1C[C@@H](O[C@H]2C[C@@H](O[C@H]3C[C@](C)(O)[C@H](O)[C@@H](C)O3)[C@@H](O)[C@@H](C)O2)[C@H](O)[C@@H](C)O1`: the mutagenic call (Test System: CHINESE HAMSTER OVARY, Strain/Indicator: CHO (HGPRT)/6-THIOGUANINE, Metabolic Activation: NONE, Method: PREINCUBATION) is “active; positive”.
For the molecule `N1=NC2[C@@H]3O[C@@H]3C1[C@H]1O[C@@H]21`, the mutagenic call was “inactive; negative” under setting [1]; “inactive; negative” (Test System: AMES SALMONELLA TYPHIMURIUM, Strain/Indicator: TA98, Metabolic Activation: RAT, LIVER, S-9, PHENOBARBITAL, Method: STANDARD PLATE); “inactive; negative” under setting [2]; “inactive; negative” (Test System: AMES SALMONELLA TYPHIMURIUM, Strain/Indicator: TA100, Metabolic Activation: RAT, LIVER, S-9, PHENOBARBITAL, Method: STANDARD PLATE); “inactive; negative” (Test System: AMES SALMONELLA TYPHIMURIUM, Strain/Indicator: TM677/8-AZAGUANINE, Metabolic Activation: NONE, Method: STANDARD PLATE).

Values taken from PubChem BioAssay AID1259407 (Chemical Carcinogenesis Research Information System (CCRIS), 2018).
